Test results from patent publication US20260217701A1, “SELECTIVE BET INHIBITORS AND USES THEREOF” (Tay Therapeutics Limited, priority 2022, published 2026).
Values joined by “and” are separate entries in the source; they are usually repeats but may differ in a detail not shown here. Equal values may be shown once.

Test: Rat PK study #3 (ABBV-744 IV 1 mg/kg and PO 5 mg/kg)
Format: in vivo, SD rats
Parameters: Tmax: unit: h
Conditions: for concentration at 0.033 h: male, Sprague-Dawley, rat, plasma, iv
Experimental: For the third rat pharmacokinetic study, the pharmacokinetics of ABBV-744 were assessed in male SD rats for comparison to Compound A. ABBV-744 was prepared in a formulation of 5% DMSO, 40% PEG-400, and 55% Milli-Q water (see Table 2D for formulation) and delivered to animals orally (PO) at a dose of 5 mg/kg, or intravenously (IV) at a dose of 1 mg/kg. Animals in each group (n=3) were then monitored over a 24-hour period.
Blood samples (~0.2 mL) were collected according to a schedule (IV administration: 0.033, 0.083, 0.25, 0.5, 1, 2, 4, and 8 h following the initial dosing; PO administration: 0.083, 0.25, 0.5, 1, 2, 4, 8, and 24 h following the initial dosing) by jugular vein by cannulation except for the dosing vein (for IV group), and EDTA-K2 was used as anticoagulant. Within 30 minutes of collection, the samples were centrifuged at approximately 4000 times g-force for 5 minutes at 4° C. to obtain blood plasma. The plasma samples were immediately divided into two aliquots (~75 µL each), transferred to a cryogenic vial, and stored in a freezer at −75±15° C. prior to analysis.
The concentration of ABBV-744 in plasma samples was determined by liquid chromatography-mass spectrometry (LC-MS/MS) using a Shimadzu HPLC(DGU-405; LC-40D XS CN; SIL-40C XSCN; Plate Changer CN; CTO-40C CN; and CBM-40 CN) and an AB API 5500+LC/MS/MS instrument. Samples were analyzed on an Agilent Poroshell Bonus RP 2.7 μm (50×2.1 mm) column. Solution A in the mobile phase was 95% water (0.1% formic acid) and solution B was 95% acetonitrile in water (0.1% formic acid), injection volume was 6 μL, and flow rate was 0.6 mL/min.
To prepare samples for analysis, serial concentrations were prepared by diluting the stock solution of analyte with a 50% acetonitrile in water solution. 5 μL working solutions (5, 10, 20, 50, 100, 500, 1000, 5000, and 10000 ng/mL) were added to 50 μL of the blank SD rat plasma to achieve calibration standards of ~0.5 to 1000 ng/ml (0.5, 1, 2, 5, 10, 50, 100, 500, and 1000 ng/ml) in a total volume of 55 μL. Five quality control samples at 1 ng/ml, 2 ng/ml, 5 ng/ml, 50 ng/mL, and 800 ng/ml for plasma were prepared independently of those used for the calibration curves. These QC samples were prepared on the day of analysis in the same way as calibration standards.
55 μL of standards, 55 μL of QC samples and 55 μL of unknown samples (50 μL of unknown rat plasma with 5 µL of blank solution) were added to 200 µL of acetonitrile containing IS mixture (verapamil) for precipitating protein respectively. The samples were then vortexed for 30 s. After centrifugation at 4° C., 3900 rpm for 15 min, the supernatant was diluted 3 times with water. 6 μL of diluted supernatant was injected into the LC/MS/MS system for quantitative analysis.

[1] = SD rats, IV 1 mg/kg, DMSO/PEG-400/Milli-Q water formulation, individual animals, 1 mg/kg
[2] = SD rats, IV 1 mg/kg, DMSO/PEG-400/Milli-Q water formulation, mean of 3 animals
[3] = SD rats, PO 5 mg/kg, DMSO/PEG-400/Milli-Q water formulation, individual animals, 5 mg/kg

With `CCNC(=O)c1cc2c(-c3cc(C(C)(C)O)ccc3Oc3c(C)cc(F)cc3C)cn(C)c(=O)c2[nH]1` [ABBV-744] the “exposure above the free EC50 BD2 BRD4” value (5 mg/kg dose) was “minimal”, the Clinical observations (IV 1 mg/kg and PO 5 mg/kg) was “No clinical observations were noted” and the “Plasma Concentration” value (SD rats, IV 1 mg/kg, DMSO/PEG-400/Milli-Q water formulation, 0.033 h, individual animals, 1 mg/kg) was 484 ng/mL and 489 ng/mL. The “Plasma Concentration” value (SD rats, IV 1 mg/kg, DMSO/PEG-400/Milli-Q water formulation, 0.083 h, individual animals, 1 mg/kg) was 308 ng/mL and 353 ng/mL, the “Plasma Concentration” value (SD rats, IV 1 mg/kg, DMSO/PEG-400/Milli-Q water formulation, 0.25 h, individual animals, 1 mg/kg) was 267 ng/mL and 289 ng/mL and the “Plasma Concentration” value (SD rats, IV 1 mg/kg, DMSO/PEG-400/Milli-Q water formulation, 0.5 h, individual animals, 1 mg/kg) was 217 ng/mL and 202 ng/mL. For the same molecule, the “Plasma Concentration” value (SD rats, IV 1 mg/kg, DMSO/PEG-400/Milli-Q water formulation, 1 h, individual animals, 1 mg/kg) was 147 ng/mL and 158 ng/mL, the “Plasma Concentration” value (SD rats, IV 1 mg/kg, DMSO/PEG-400/Milli-Q water formulation, 2 h, individual animals, 1 mg/kg) was 116 ng/mL and 110 ng/mL and the “Plasma Concentration” value (SD rats, IV 1 mg/kg, DMSO/PEG-400/Milli-Q water formulation, 4 h, individual animals, 1 mg/kg) was 55.9 ng/mL and 54.8 ng/mL. For the same molecule, the “Plasma Concentration” value (SD rats, IV 1 mg/kg, DMSO/PEG-400/Milli-Q water formulation, 8 h, individual animals, 1 mg/kg) was 18.3 ng/mL and 15.0 ng/mL, the AUCInf [1] was 750 ng·h/mL and 728 ng·h/mL and the AUC_%Extrap_obs [1] was 5.41% and 8.03% and 6.23%. For the same molecule, the AUClast [1] was 690 ng·h/mL and 683 ng·h/mL, the C0 [1] was 652 ng/mL and 606 ng/mL and the Cl_obs [1] was 24.9 mL/min/kg and 22.2 mL/min/kg and 22.9 mL/min/kg. The MRTInf_obs [1] was 2.88 h and 2.61 h, the T1/2 [1] was 2.28 h and 2.09 h and the Vss_obs [1] was 3.69 L/kg and 3.84 L/kg and 3.59 L/kg. The AUC_%Extrap_obs [2] was 6.56%, the Cl_obs [2] was 23.3 mL/min/kg and the Vss_obs [2] was 3.71 L/kg. The “Plasma Concentration” value (SD rats, PO 5 mg/kg, DMSO/PEG-400/Milli-Q water formulation, 0.083 h, individual animals, 5 mg/kg) was 0.00 ng/mL and 1.03 ng/mL and 3.81 ng/mL, the “Plasma Concentration” value (SD rats, PO 5 mg/kg, DMSO/PEG-400/Milli-Q water formulation, 0.25 h, individual animals, 5 mg/kg) was 2.95 ng/mL and 6.42 ng/mL and 48.5 ng/mL and the “Plasma Concentration” value (SD rats, PO 5 mg/kg, DMSO/PEG-400/Milli-Q water formulation, 0.5 h, individual animals, 5 mg/kg) was 7.91 ng/mL and 21.1 ng/mL and 100 ng/mL. The “Plasma Concentration” value (SD rats, PO 5 mg/kg, DMSO/PEG-400/Milli-Q water formulation, 1 h, individual animals, 5 mg/kg) was 16.7 ng/mL and 41.0 ng/mL and 118 ng/mL, the “Plasma Concentration” value (SD rats, PO 5 mg/kg, DMSO/PEG-400/Milli-Q water formulation, 2 h, individual animals, 5 mg/kg) was 31.9 ng/mL and 78.0 ng/mL and 157 ng/mL and the “Plasma Concentration” value (SD rats, PO 5 mg/kg, DMSO/PEG-400/Milli-Q water formulation, 4 h, individual animals, 5 mg/kg) was 40.6 ng/mL and 101 ng/mL and 239 ng/mL. The “Plasma Concentration” value (SD rats, PO 5 mg/kg, DMSO/PEG-400/Milli-Q water formulation, 8 h, individual animals, 5 mg/kg) was 54.6 ng/mL and 70.6 ng/mL and 214 ng/mL, the “Plasma Concentration” value (SD rats, PO 5 mg/kg, DMSO/PEG-400/Milli-Q water formulation, 24 h, individual animals, 5 mg/kg) was 0.909 ng/mL and 1.09 ng/mL and 4.52 ng/mL and the AUClast [3] was 739 ng·h/mL and 1175 ng·h/mL and 3265 ng·h/mL. For the same molecule, the Cmax [3] was 54.6 ng/mL and 101 ng/mL and 239 ng/mL, the F [3] was 22.1% and 35.2% and 97.7% and the Tmax [3] was 4.00 h. The F (SD rats, PO 5 mg/kg, DMSO/PEG-400/Milli-Q water formulation, mean of 3 animals) was 51.7%, the concentration at 0.033 h (1 mg/kg, SD rats, IV 1 mg/kg, DMSO/PEG-400/Milli-Q water formulation, 0.033 h, individual animals) was 475 ng/mL and the concentration at 0.033 h (1 mg/kg, SD rats, IV 1 mg/kg, DMSO/PEG-400/Milli-Q water formulation, 0.033 h, mean of 3 animals) was 483 ng/mL.
